These results are taken from patent US20090304600A1 (priority 2008, published 2009).

For data set [1] the following is noted: cited from earlier work.
The conditions of data set [2]: ESRD patient, cited from earlier work.
For data set [3] the following is noted: cited from earlier work. This is another data set of the same source.
For data set [4] the following is noted: patients with normal renal function; cited from earlier work.

The structures appear in SMILES notation. Read-outs that look alike come from different tables or passages of the source.

For the compound `O=S([O-])([O-])=S.[Na+].[Na+]` [sodium thiosulfate], in data set [1] (anuric dogs), the elimination route result was “primarily through the biliary system” and the half-life was 3.98 h. Besides, in data set [1] (dogs, during renal failure), the metabolic clearance rate entry is reported as “decreased drastically” and the volume of distribution result is recorded as “doubled”. In addition, the distribution result in data set [1] (normal and anuric mongrel dogs) is reported as “distributes rapidly throughout the extracellular space”. For the same compound, in data set [1] (normal dogs), the cleared renally is above 98% and the half-life is 0.78 h. Further, the “solubility in the dialysis solution” value (hemodialysis dialysate) was “soluble”. Further, the “solubility in peritoneal dialysis solutions” value (peritoneal dialysis solutions) is “soluble”. In addition, in data set [2] (15 min after infusion), the “serum sodium thiosulfate concentration” value was 110 µg/mL. In addition, the “serum sodium thiosulfate concentration” value in data set [2] (after a 4-h hemodialysis session) is 0 µg/mL. In data set [2] (before hemodialysis (52 h after administration)), the “serum sodium thiosulfate concentration” value was 1.2 µg/mL. Also, the calculated half life in data set [2] is 7.97 h. Moreover, in data set [3], the solubility in water entry is recorded as “soluble in water”. The serum half-life in data set [4] was 0.25 h.

On to `O=S([O-])([O-])=S.[Ca+2]` [Calcium thiosulfate], for which the “water solubility relative to calcium phosphate” value in data set [3] is “many folds more water soluble than calcium phosphate”.
